In paper PMC9636034 (Current Research in Food Science, 2022) one finds IC50 data, which are given here for two compounds.

The experiment concerns the target α-glucosidase from yeast (Saccharomyces cerevisiae, UniProt P53341). As to the kind of experiment: Inhibition assay against α-glucosidase from yeast. The class given is biochemical.

Structures are written as SMILES. Bounds are passed on as bounds.

Sequence of α-glucosidase from yeast (P53341 whole entry): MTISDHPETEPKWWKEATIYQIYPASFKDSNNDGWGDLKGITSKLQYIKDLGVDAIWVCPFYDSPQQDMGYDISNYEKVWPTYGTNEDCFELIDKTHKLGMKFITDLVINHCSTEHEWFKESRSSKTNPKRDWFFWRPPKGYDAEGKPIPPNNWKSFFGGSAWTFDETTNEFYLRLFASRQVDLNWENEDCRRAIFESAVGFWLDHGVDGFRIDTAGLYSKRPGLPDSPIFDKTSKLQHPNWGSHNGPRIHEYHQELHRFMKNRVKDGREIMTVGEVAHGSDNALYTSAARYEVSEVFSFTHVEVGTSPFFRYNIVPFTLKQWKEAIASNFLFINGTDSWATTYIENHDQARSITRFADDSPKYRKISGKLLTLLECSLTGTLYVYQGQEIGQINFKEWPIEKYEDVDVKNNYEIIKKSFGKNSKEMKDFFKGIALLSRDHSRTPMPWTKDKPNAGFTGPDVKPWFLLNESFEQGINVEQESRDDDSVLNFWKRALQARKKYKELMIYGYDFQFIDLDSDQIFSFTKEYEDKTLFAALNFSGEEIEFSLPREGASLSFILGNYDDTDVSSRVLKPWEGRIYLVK

On to `CC(=O)[C@@H]1COC(=O)[C@H]1C` [Compound 2, (3S, 4S)-4-acetyl-3-methyldihydrofuran-2 (3H)-one], for which half-maximal inhibition (IC50) required 193 ± 13.1 µM.

Compound `CC1=C(C)C(C)(O)OC1=O` (centres unmarked) [Compound 3, 2-methyl-2-hydroxy-3,4-dimethyl-5-oxo-2,5-dihydrofuran] gave an IC50 greater than 250 µM.
